Data published in ChEMBL document CHEMBL1777684, “Synthesis and evaluation of antioxidant and antibacterial activities of new substituted bis(1,3,4-oxadiazoles), 3,5-bis(substituted) pyrazoles and isoxazoles” (Bioorg Med Chem Lett, 2011).
Activity calls are given as the source filed them. The calls are words filed in the database; no cut-off is given here.

Assays:
[1] = tested on: Radical scavenging activity; test: Antioxidant activity assessed as DPPH radical scavenging activity at 10 ug/ml by UV-visible spectrophotometry; assay type: functional
[2] = Anti-lipid peroxidation activity ferric chloride-induced lipid peroxidation using egg yolk homogenate at 40 ug/ml by TBARS assay; assay type: physicochemical; details: tissue homogenate
Staphylococcus aureus = test: Antibacterial activity against Staphylococcus aureus NCIM 2079 at 100 ug/ml after 24 hrs by agar disc diffusion method; assay type: functional; details: for zone of inhibition at 100 µg/mL: NCIM 2079, 24 h, read-out: IZ
Bacillus subtilis = test: Antibacterial activity against Bacillus subtilis NCIM 2063 at 100 ug/ml after 24 hrs by agar disc diffusion method; assay type: functional; details: NCIM 2063, 24 h, read-out: IZ
Escherichia coli = test: Antibacterial activity against Escherichia coli NCIM 2065 at 100 ug/ml after 24 hrs by agar disc diffusion method; assay type: functional; details: for zone of inhibition at 100 µg/mL: NCIM 2065, 24 h, read-out: IZ
Pseudomonas aeruginosa = test: Antibacterial activity against Pseudomonas aeruginosa NCIM 5029 at 100 ug/ml after 24 hrs by agar disc diffusion method; assay type: functional; details: for zone of inhibition at 100 µg/mL: NCIM 5029, 24 h, read-out: IZ

Activity [2] | Compound | Activity [1] | zone of inhibition at 100 µg/mL (Staphylococcus aureus) [mm] | zone of inhibition at 100 µg/mL (Bacillus subtilis) [mm] | zone of inhibition at 100 µg/mL (Escherichia coli) [mm] | zone of inhibition at 100 µg/mL (Pseudomonas aeruginosa) [mm] | inhibition zone (IZ) (Escherichia coli) | inhibition zone (IZ) (Pseudomonas aeruginosa) | inhibition zone (IZ) (Staphylococcus aureus)
48.4% | COc1cc(/C=N/Nc2cc(N/N=C/c3cc(OC)c(OC)c(OC)c3)on2)cc(OC)c1OC | 54% | 13 | 10 | 11 | 9 | – | – | –
Not Active | Clc1ccc(/C=N/Nc2cc(N/N=C/c3ccc(Cl)cc3)on2)cc1 | 37.4% | 14 | 8 | 8 | 6 | – | – | –
54.5% | CN(C)c1ccc(/C=N/Nc2cc(N/N=C/c3ccc(N(C)C)cc3)on2)cc1 | 90.6% | 20 | 15 | 10 | 12 | – | – | –
33.4% | c1ccc(-c2nnc(Cc3nnc(-c4ccccc4)o3)o2)cc1 | 41.3% | 7 | 10 | 5 | 13 | – | – | –
58.6% | Oc1ccc(/C=N/Nc2cc(N/N=C/c3ccc(O)cc3)[nH]n2)cc1 | 83% | – | 7 | 13 | 18 | – | – | inactive
44.3% | COc1cc(-c2nnc(Cc3nnc(-c4cc(OC)c(OC)c(OC)c4)o3)o2)cc(OC)c1OC | – | 7 | 3 | – | – | inactive | inactive | –
53.4% | Oc1ccc(-c2nnc(Cc3nnc(-c4ccc(O)cc4)o3)o2)cc1 | 36% | 7 | 2 | 1 | 1 | – | – | –

The next lines start with the compound.

Compound | Activity [2] | Activity [1] | zone of inhibition at 100 µg/mL (Staphylococcus aureus) [mm] | zone of inhibition at 100 µg/mL (Bacillus subtilis) [mm] | zone of inhibition at 100 µg/mL (Escherichia coli) [mm] | zone of inhibition at 100 µg/mL (Pseudomonas aeruginosa) [mm] | inhibition zone (IZ) (Escherichia coli) | inhibition zone (IZ) (Pseudomonas aeruginosa) | inhibition zone (IZ) (Staphylococcus aureus)
COc1cc(/C=N/Nc2cc(N/N=C/c3cc(OC)c(OC)c(OC)c3)[nH]n2)cc(OC)c1OC | – | 52.4% | 17 | 12 | – | 9 | inactive | – | –
CN(C)c1ccc(/C=N/Nc2cc(N/N=C/c3ccc(N(C)C)cc3)[nH]n2)cc1 | – | 59.2% | 20 | 10 | 9 | 8 | – | – | –
CN(C)c1ccc(-c2nnc(Cc3nnc(-c4ccc(N(C)C)cc4)o3)o2)cc1 | 46.3% | 28% | 13 | 12 | 10 | 9 | – | – | –
C(=N\Nc1cc(N/N=C/c2ccccc2)[nH]n1)/c1ccccc1 | 44% | 34.2% | 5 | 9 | 4 | 9 | – | – | –
VITAMIN E | 70% | – | – | – | – | – | – | – | –
Clc1ccc(-c2nnc(Cc3nnc(-c4ccc(Cl)cc4)o3)o2)cc1 | 16.2% | 40% | 4 | 6 | – | – | inactive | inactive | –
O=C1O[C@H]([C@@H](O)CO)C(O)=C1O | – | 93.2% | – | – | – | – | – | – | –
COc1ccc(-c2nnc(Cc3nnc(-c4ccc(OC)c(OC)c4)o3)o2)cc1OC | – | inactive | 10 | 11 | 10 | 9 | – | – | –
O=[N+]([O-])c1ccc(/C=N/Nc2cc(N/N=C/c3ccc([N+](=O)[O-])cc3)[nH]n2)cc1 | Not Active | 74.2% | 9 | 7 | 11 | 8 | – | – | –
Oc1ccccc1-c1nnc(Cc2nnc(-c3ccccc3O)o2)o1 | 48.6% | 37% | 9 | 13 | 8 | 5 | – | – | –
COc1ccc(/C=N/Nc2cc(N/N=C/c3ccc(OC)c(OC)c3)[nH]n2)cc1OC | – | 47.1% | 10 | 8 | 13 | 6 | – | – | –
O=C(O)c1cn(C2CC2)c2cc(N3CCNCC3)c(F)cc2c1=O [CIPROFLOXACIN] | – | – | 29 | 18 | – | 18 | – | – | –
Clc1ccc(/C=N/Nc2cc(N/N=C/c3ccc(Cl)cc3)[nH]n2)cc1 | – | 40% | 4 | 6 | 4 | 5 | – | – | –
COc1ccc(-c2nnc(Cc3nnc(-c4ccc(OC)cc4)o3)o2)cc1 | 40.5% | inactive | 9 | 8 | 6 | 7 | – | – | –
COc1ccc(/C=N/Nc2cc(N/N=C/c3ccc(OC)cc3)[nH]n2)cc1 | 46.3% | 44.3% | 28 | 20 | 18 | 19 | – | – | –
